Source: patent US20180073018A1, “COMPOSITIONS AND METHODS FOR SPECIFIC REACTIVATION OF HIV LATENT RESERVOIR” (priority 2015, published 2018)

System: HIV-1 LTR promoter
Assay: dCas9-VPH/msgRNA (or SAHA) reactivation of latent LTR-eLuc reporter in TZM-bI cells
Assay type: cell-based
Description: Cells were plated in 96-well plate and the indicated MS2-gRNAs were cotransfected by Lipofectamine 3000 (FIG. 3A) or coinfected by lentiviruses (FIG. 3B, MOI=50) with pMSCV-LTR-dCas9-VP64-BFP plus pLV-MS2-p65-HSF1-GFP. Two days later, OneGlo luminescence assay was performed. The SIV MS2-gRNA-D was used as negative control. […] The gRNA-J has no effect due to 2 nucleotides mismatch to the LTR sequence from TZM-bI cells.
FIG. 8A, FIG. 8B, FIG. 8C, and FIG. 8D, depict the results of experiments of screening of MS2-mediated sgRNAs (msgRNAs) targeting the HIV-1 long terminal repeat (LTR) in the dCas9-synergistic activation mediator (SAM) system. FIG. 8A is a schematic illustration of SAM-VPH complex derived from dCas9-VP64 (V) and MS2-p65-HSF1 (PH) with msgRNAs. FIG. 8B is a graph showing similar activation of transfected EcoHIV-eLuc reporter by inducible (TRE) or constitutive (LTR) dCas9-VP64 expression in HEK293T cells. FIG. 8C is a graph showing similar reactivation of latent HIV-LTR-eLuc reporter in TZM-bI cells after either transient plasmid transfection by Lipofectamine 3000 or stable infection by lentivirus. […] The gRNA-J has no effect due to 2 nucleotides mismatch to the LTR sequence from TZM-bI cells. […]
FIG. 9A and FIG. 9B: TZM-bI cells were infected with dCas9-VPH and indicated msgRNA lentiviruses at 1 or 10 MOI and luciferase activity was measured at 2-21 days post-infection (dpi). […]
FIG. 12A, FIG. 12B, FIG. 12C: The dCas9-VPH stable TZM-bI cells were treated with SAHA or infected with indicated msgRNAs lentivirus for 2-4 d before luminescence reporter assay (FIG. 12A) and CELLTITER-GLO® luminescent cell viability assay (FIG. 12B). […]
Experiments were conducted to compare reactivation of HIV-LTR luciferase reporter in TZM-BI cells induced by gRNA/dCas9-VP64/MS2-p65-HSF1/delivered by either transient plasmid transfection (FIG. 3A) or stable lentivirus infection (FIG. 3B). […] Two days later, OneGlo luminescence assay was performed. […]

O=C(CCCCCCC(=O)Nc1ccccc1)NO [SAHA, suberoylanilide hydroxamic acid]
activation of LTR-eLuc reporter (TZM-bI, 500 nM): did not activate | reactivation of LTR-eLuc reporter (TZM-bI, 5,000 nM): 4 fold
